# Data published in PMC6127270 (Frontiers in Pharmacology, 2018).
# Like-named read-outs stand apart in the source and are kept apart here.
# Assays:
# human KOR = molecular target: T1, human KOR (Homo sapiens, UniProt P41145); test: biochemical; format: biochemical
# T1 construct: host or cells: CHO
# CD-1 mice [1] = details: s.c., hot-plate, values marked c (footnote not given), ref Lattanzi et al., 2005; cited from earlier work
# human DOR = molecular target: T2, human DOR (Homo sapiens, UniProt P41143); test: [35S]GTPγS binding, CHO-hDOR membranes; format: biochemical; details: for [35S]GTPγS Binding DOR % stim.: relative to DPDPE
# T2 construct: host or cells: CHO
# [2] = tested on: guinea-pig ileum (GPI) myenteric plexus-longitudinal muscle preparation; parameters: method as in Lattanzi et al., 2005; details: values marked c (footnote not given); ref Lattanzi et al., 2005; read-out: Bioassay IC50 GPI; cited from earlier work
# CD-1 mice [3] = test: Charcoal meal test (gastrointestinal transit); details: mice; for Inhibition of gastrointestinal transit at highest tested dose: highest doses morphine 8000, 14-OMO 90, POMO […]
# [4] = Charcoal meal test (gastrointestinal transit); details: male, CD-1, mouse, in vivo, sc
# human MOR = molecular target: T3, human MOR (Homo sapiens, UniProt P35372); test: [35S]GTPγS binding, CHO-hMOR membranes; format: biochemical; details: for [35S]GTPγS Binding MOR % stim.: relative to DAMGO
# T3 construct: host or cells: CHO
# [5] = tested on: mouse vas deferens (MVD) preparation; parameters: method as in Lattanzi et al., 2005; details: values marked c (footnote not given); ref Lattanzi et al., 2005; read-out: Bioassay IC50 MVD; cited from earlier work
# [6] = tested on: mouse vas deferens (MVD) preparation; details: for IC50: read-out: Bioassay IC50 MVD, inhibition of electrically evoked twitch
# [7] = tested on: guinea-pig ileum (GPI) myenteric plexus-longitudinal muscle preparation; details: for IC50: read-out: Bioassay IC50 GPI, inhibition of electrically evoked twitch
# KOR = molecular target: T4, KOR (Cavia porcellus, UniProt P41144); test: Competition binding, [3H]U69,593, guinea-pig brain membranes
# T4 construct: Membranes were prepared from Sprague–Dawley rat brains or guinea-pig brains; from tissue; host or cells: guinea-pig brain
# DOR = molecular target: T5, DOR (Rattus norvegicus, UniProt P33533); test: Competition binding, [3H][Ile5,6]deltorphin II, rat brain membranes
# T5 construct: Membranes were prepared from Sprague–Dawley rat brains or guinea-pig brains; from tissue; host or cells: Sprague-Dawley rat brain
# CD-1 mice [8] = test: Hot-plate assay (acute thermal nociception); format: in vivo, mouse
# [9] = tested on: mouse vas deferens (MVD) preparation; test: tissue or blood; details: read-out: Bioassay IC50 MVD
# MOR = molecular target: T6, MOR (Rattus norvegicus, UniProt P33535); test: Competition binding, [3H]DAMGO, rat brain membranes
# T6 construct: Membranes were prepared from Sprague–Dawley rat brains or guinea-pig brains; from tissue; host or cells: Sprague-Dawley rat brain
# [10] = tested on: guinea-pig ileum (GPI) myenteric plexus-longitudinal muscle preparation; test: tissue or blood; details: Cavia porcellus, read-out: Bioassay IC50 GPI
smiles,measurement,setting,value
"CO[C@@]12CCC(=O)[C@@H]3Oc4c(O)ccc5c4[C@@]31CCN(C)[C@@H]2C5 [14-OMO, 14-O-methyloxymorphone, reference compound]",EC50,human KOR,144 ± 32 nM
same,[35S]GTPγS Binding KOR % stim.,human KOR,65 ± 7%
same,Antinociceptive activity AD50 (95% CI),CD-1 mice [1],53 (48–58)^c μg/kg
same,EC50,human DOR,43.8 ± 11.7 nM
same,[35S]GTPγS Binding DOR % stim.,human DOR,106 ± 1%
same,IC50,[2],2 ± 0.3 nM
same,Inhibition of gastrointestinal transit at highest tested dose,"CD-1 mice [3]; charcoal test, s.c.",90%
same,ED50 at 30 min,[4],0.037 µmol/kg
same,EC50,human MOR,1.62 ± 0.48 nM
same,[35S]GTPγS Binding MOR % stim.,human MOR,97 ± 6%
same,IC50,[5],30.5 ± 5.5 nM
"C[C@@H](NC(=O)[C@@H](N)Cc1ccc(O)cc1)C(=O)NCC(=O)N(C)[C@@H](Cc1ccccc1)C(=O)NCCO [DAMGO, [D-Ala^2,N-Me-Phe^4,Gly-ol^5]enkephalin, reference compound]",[35S]GTPγS Binding MOR % stim.,human MOR,100%
"CC(C)[C@H](NC(=O)[C@H](CC(=O)O)NC(=O)[C@H](Cc1ccccc1)NC(=O)[C@@H](C)NC(=O)[C@@H](N)Cc1ccc(O)cc1)C(=O)N[C@H](C(=O)NCC(N)=O)C(C)C [Deltorphin I, deltorphin I, reference compound]",IC50,[6],0.19 ± 0.03 nM
same,IC50,[7],1240 ± 132 nM
"C[C@@H](NC(=O)[C@@H](N)Cc1ccc(O)cc1)C(=O)N[C@@H](Cc1ccccc1)C(=O)NCC(=O)N[C@@H](Cc1ccc(O)cc1)C(=O)N1CCC[C@H]1C(=O)N[C@@H](CO)C(N)=O [Dermorphin, reference compound]",IC50,[6],18 ± 0.31 nM
same,IC50,[7],1.3 ± 0.27 nM
"CN1CC[C@]23c4c5ccc(O)c4O[C@H]2[C@@H](O)C=C[C@H]3[C@H]1C5 [Morphine, Morphine hydrocloride, reference compound]",Antinociceptive activity AD50 (95% CI),CD-1 mice [1],6690 (4468–9348)^c μg/kg
same,Inhibition of gastrointestinal transit at highest tested dose,"CD-1 mice [3]; charcoal test, s.c.",completely abolishing transit
same,ED50 at 30 min,[4],3.8 µmol/kg
"CN1CC[C@]23c4c5ccc(O)c4O[C@H]2C(=O)CC[C@@]3(OCCCc2ccccc2)[C@H]1C5 [POMO, 14-O-phenylpropyloxymorphone]",Ki,KOR,0.3 ± 0.01 nM
same,Agonist efficacy at KOR,human KOR,partial agonism
same,EC50,human KOR,0.38 ± 0.13 nM
same,Fold increase in potency (EC50) than 14-OMO at KOR,human KOR,411 fold
same,[35S]GTPγS Binding KOR % stim.,human KOR,39 ± 5%
same,Ki,DOR,0.13 ± 0.02 nM
same,Antagonism of antinociception by naloxone,"CD-1 mice [8]; POMO 2 nmol/kg s.c., 20 min, naloxone 1 mg/kg s.c., -10 min",significantly antagonized
same,Antagonism of antinociception by naltrindole,"CD-1 mice [8]; POMO 2 nmol/kg s.c., 20 min, naltrindole 3 mg/kg s.c., -10 min",did not antagonize
same,Antagonism of antinociception by nor-BNI,"CD-1 mice [8]; POMO 2 nmol/kg s.c., 20 min, nor-BNI 20 mg/kg s.c., -24 h",did not antagonize
same,Fold increased antinociceptive potency than 14-OMO,"CD-1 mice [8]; hot-plate, mice, s.c.",over 70 fold
same,Fold increased antinociceptive potency than morphine,"CD-1 mice [8]; hot-plate, mice, s.c.",> 9000 fold
same,Time of peak antinociceptive response,"CD-1 mice [8]; hot-plate, mice, s.c.",20 min
same,Fold increase in antinociceptive potency than oxymorphone,"CD-1 mice [8]; hot-plate, mice, s.c., oxymorphone value from Dumitrascuta et al., 2017",> 1400 fold
same,AD50 hot-plate test,"CD-1 mice [8]; mice, s.c.",0.7 nmol/kg
same,Antinociceptive activity AD50 (95% CI),"CD-1 mice [8]; mice, s.c., hot-plate, at peak of action",0.70 (0.63–0.77) μg/kg
same,Fold more potent than 14-OMO as agonist in MVD,[6],1000 fold
same,Fold more potent than morphine as agonist in MVD,[6],"> 50,000 fold"
same,EC50,human DOR,0.28 ± 0.14 nM
same,Agonist efficacy at DOR,human DOR; [35S]GTPγS binding,full efficacy
same,Fold increase in potency (EC50) than 14-OMO at DOR,human DOR; [35S]GTPγS binding,151 fold
same,[35S]GTPγS Binding DOR % stim.,human DOR,91 ± 8%
same,IC50,[9],0.03 ± 0.0013 nM
same,Ki,MOR,0.073 ± 0.007 nM
same,Selectivity DOR/MOR,MOR; ratio of Ki values,1.8
same,Selectivity KOR/MOR,MOR; ratio of Ki values,4.1
same,IC50,[10],1.2 ± 0.21 nM
same,Inhibition of gastrointestinal transit compared with 14-OMO and morphine,CD-1 mice [3]; charcoal test,fourfold less inhibition
same,Inhibition of gastrointestinal transit at highest tested dose,"CD-1 mice [3]; charcoal test, s.c.",50%
same,Ratio ED50(constipation) vs. AD50(antinociception),CD-1 mice [3]; s.c.,2.43
same,ED50 at 30 min,[4],0.0017 µmol/kg
same,EC50,human MOR,0.082 ± 0.017 nM
same,Agonist efficacy at MOR,human MOR; [35S]GTPγS binding,full efficacy
same,Fold increase in potency (EC50) than 14-OMO at MOR,human MOR; [35S]GTPγS binding,20 fold
same,[35S]GTPγS Binding MOR % stim.,human MOR,100 ± 8%
same,Fold more potent than morphine as agonist in GPI,[7],over 250 fold
